Measured values published in patent publication US20220184081A1, “ANTIPRURITIC AGENT USING PAC1 RECEPTOR ANTAGONIST” (KAGOSHIMA UNIVERSITY, priority 2019, published 2022).
No end group written: not given here.

How the values were obtained:
mouse PAC1 receptor = molecular target: T1, mouse PAC1 receptor (Mus musculus, UniProt P70205); assay: CREB phosphorylation by PACAP stimulus, Western blot, PAC1/CHO cells; assay type: cell-based; details: PAC1/CHO cells; for CREB phosphorylation by PACAP (1 nM): compound 10 pM to 10 nM for 30 minutes before PACAP, FIG. 4A, 4C, 4D, 5
T1 construct: expressed in transfected cells; host or cells: CHO cells
T1 sequence (P70205 21-496): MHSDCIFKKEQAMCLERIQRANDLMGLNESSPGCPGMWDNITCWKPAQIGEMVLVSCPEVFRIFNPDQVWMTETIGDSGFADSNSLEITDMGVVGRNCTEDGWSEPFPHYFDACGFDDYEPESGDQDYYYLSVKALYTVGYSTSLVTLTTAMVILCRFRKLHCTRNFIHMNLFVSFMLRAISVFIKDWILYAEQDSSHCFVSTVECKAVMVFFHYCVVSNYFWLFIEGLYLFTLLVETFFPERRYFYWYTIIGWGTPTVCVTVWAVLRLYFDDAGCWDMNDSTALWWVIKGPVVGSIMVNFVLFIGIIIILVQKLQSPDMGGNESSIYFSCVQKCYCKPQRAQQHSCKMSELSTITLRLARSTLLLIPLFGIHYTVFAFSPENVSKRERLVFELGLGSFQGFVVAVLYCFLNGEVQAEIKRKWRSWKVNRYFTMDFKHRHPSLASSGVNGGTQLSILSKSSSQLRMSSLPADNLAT
Procedure: The effect of each compound on the phosphorylation of CREB (cAMP-responsive element-binding protein) produced by a PACAP stimulus was examined by Western blot analysis using an anti-phosphorylated CREB (pCREB) antibody with a mouse PAC1 receptor-expressing CHO cells (PAC1/CHO cells) and a mouse VPAC1 receptor-expressing CHO cells (VPAC1/CHO cells).
Specifically, treatment with a compound (PA-8, compound 2j and compound 2o) at 10 pM to 10 nM or a solvent therefor, DMSO (VEH: 0.1% DMSO-containing phosphate buffer solution) was performed for 30 minutes, 1 nM PACAP was then added, and protein was recovered within 30 minutes after a PACAP stimulus.
The effect of each compound on the phosphorylation of CREB (cAMP-responsive element-binding protein) produced by a PACAP stimulus was examined by Western blot analysis using an anti-phosphorylated CREB (pCREB) antibody with a mouse PAC1 receptor-expressing CHO cells (PAC1/CHO cells).

[1] = system: PACAP-induced itch behavior in mice; assay: Itch behavior induced by PACAP intradermal administration; assay type: in vivo, mouse; details: for biting, licking or scratching behavior induced by PACAP (100 pmol) intradermal administration: simultaneous intradermal administration with PACAP, 0.01 to 1 nmol, FIG. 7A, 8, 9
Description: SLN indicates intradermal administration of normal saline. DMSO (10% solution, dissolved in normal saline) is a solvent for PA-8.
SLN indicates intradermal administration of normal saline. VEH (10% DMSO solution, dissolved in normal saline) is a solvent for PA-8 and the compound 2o.
SLN indicates intradermal administration of normal saline. VEH (10% DMSO solution, dissolved in normal saline) is a solvent for PA-9 and the compound 3d.

[2] = system: chloroquine-induced itch behavior in mice; assay: Itch behavior induced by chloroquine intradermal administration; assay type: in vivo, mouse; details: intrathecal pre-administration (i.t., 10 minutes before i.d.), 1 nmol; chloroquine 100 μg/10 μL; FIG. 10
Procedure: Chloroquine (100 μg/10 μL) was intradermally injected into the waist of each mouse (intradermal injection, i.d.). The reaction of biting, licking or scratching the injected site was defined as itch behavior, and the behavioral time was counted every 5 minutes. […] DMSO (10% solution, dissolved in normal saline) is a solvent for PA-8 or PA-9.

[3] = system: Compound 48/80-induced itch behavior in mice; assay: Itch behavior induced by Compound 48/80 intradermal administration; assay type: in vivo, mouse; details: intrathecal pre-administration (i.t., 10 minutes before i.d.), 1 nmol; Compound 48/80 100 μg/10 μL; FIG. 11
Procedure: Compound 48/80 (100 μg/10 μL) was intradermally injected into the waist of each mouse (intradermal injection, i.d.). The reaction of biting, licking or scratching the injected site was defined as itch behavior, and the behavioral time was counted every 5 minutes. […] DMSO (10% solution, dissolved in normal saline) is a solvent for PA-8 or PA-9.

[4] = system: atopic dermatitis mouse model; assay: Atopic dermatitis mouse model (DNFB); assay type: in vivo, ICR mice; details: 30 mg/kg p.o. 30 minutes before 1 hour video observation; FIG. 13
Procedure: The present test was carried out with reference to the method of Kitamura et al. that is a test system published as a method for evaluating itch in animals (Kitamura A., Takata R., Aizawa S., et al.: A murine model of atopic dermatitis can be generated by painting the dorsal skin with hapten twice 14 days apart, Scientific Rep., 8: 5988, 2018).
Five-week-old ICR mice (30 mice) were each placed in a cage, and were then conditioned for 1 week. Thereafter, three days before initiation of the test, the waist of each mouse was shaved. On the experiment start date, for the purpose of destroying the function of skin barrier, tape stripping was carried out, and 0.15% 2,4-dinitrofluorobenzene (DNFB) solution [acetone/olive oil (3:1)] was applied to the shaved waist of each mouse, using a 100-μIL pipette. Seven days later, the 0.15% DNFB solution was applied thereto once again, and two hours later, video observation was carried out for 1 hour. The shaved 30 mice were divided into 5 groups (6 mice per group), namely, a 30 mg/kg PA-8 oral (p.o.) administration group, a 30 mg/kg compound 2o oral (p.o.) administration group, a 30 mg/kg PA-9 oral (p.o.) administration group, a 30 mg/kg compound 3d (p.o.) administration group, and a solvent administration group (VEH: oral administration of 10% DMSO aqueous solution). Oral administration was carried out 30 minutes before initiation of the video observation.
An outline of the procedures of a behavioral experiment using the atopic dermatitis mouse model is shown in FIG. 12, and the results obtained by evaluating the time spent in scratching of each group are shown in FIG. 13.

psoriasis mouse model = assay: Psoriasis mouse model (imiquimod); assay type: in vivo, ICR mice; details: 30 mg/kg p.o. 30 minutes before 1 hour video observation; FIG. 14
Procedure: The present test was carried out with reference to the method of van der Fits et al. that is a test system published as a method for evaluating itch in animals (van der Fits L., Mounts S., Voerman J S A., et al.: Imiquimod-Induced Psoriasis-Like Skin Inflammation in Mice Is Mediated via the IL-23/IL-17 Axis, J. Immunol., 182, 5836-5845, 2009).
Five-week-old ICR mice (20 mice) were each placed in a cage, and were then conditioned for 1 week. Thereafter, three days before initiation of the test, the waist of each mouse was shaved. Then, 62.5 mg of commercially available imiquimod cream (5% Beselna Cream; MOCHIDA PHARMACEUTICAL CO., LTD.) was applied onto the shaved waist skin of the mice once a day for 5 days, so as to produce imiquimod-induced psoriasis model. Twenty-four hours after the final application of the cream (Day 5), video observation was carried out for 1 hour. The shaved 20 mice were divided into 5 groups (4 mice per group), namely, a 30 mg/kg PA-8 oral (p.o.) administration group, a 30 mg/kg compound 2o oral (p.o.) administration group, a 30 mg/kg PA-9 oral (p.o.) administration group, a 30 mg/kg compound 3d (p.o.) administration group, and a solvent administration group (VEH: oral administration of 10% DMSO aqueous solution). Oral administration was carried out 30 minutes before initiation of the video observation.

[5] = system: serotonin (5-HT)-induced itch mouse model; assay: Serotonin (5-HT)-induced itch mouse model; assay type: in vivo; details: intrathecal pre-administration 30 minutes before 5-HT 50 nmol i.d.; PA-8 0.1 or 1 nmol; P6-38 100 pmol; FIG. 1
Procedure: 5-HT (50 nmol, 10 μL) was intradermally injected into the waist of each mouse (intradermal injection, i.d.). The reaction of the mice to bite, lick or scratch the injected site was defined as an itch behavior, and the action time was measured every 5 minutes. […] SLN indicates the effects obtained in the case of administering normal saline instead of 5-HT. ACSF is an abbreviation of an artificial cerebrospinal fluid, which was a solvent for P6-38 and PA-8.

[6] = system: patients with atopic dermatitis; details: patients with high severity, insufficient effect of topical steroids/tacrolimus; cited from earlier work
mice = assay: Itch behavior upon waist intradermal administration of peptide; assay type: in vivo, mouse; details: waist intradermal administration 10 μL; PACAP 1 to 1,000 pmol; VIP 100 pmol; FIG. 6
Description: Accordingly, it is considered that this effect is mediated by the PAC1 receptors (FIG. 6).

Compound | CREB phosphorylation by PACAP (1 nM) (mouse PAC1 receptor) | biting, licking or scratching behavior induced by PACAP (100 pmol) intradermal administration [1] | itch behavior induced by the DNFB treatment (time spent in scratching) [4] | itch behavior induced by application of imiquimod (time spent in scratching) (psoriasis mouse model) | also measured
O=C(NCCc1c[nH]cn1)C1CC(=O)N(c2n[nH]c3ccccc23)C1 (centres unmarked) [PA-9] | suppressed depending on the concentration | suppressed in a dose-dependent manner | significantly suppressed | significantly suppressed | chloroquine-induced itch behavior [2]: almost completely suppressed; Compound 48/80-induced itch behavior [3]: almost completely suppressed
CCOc1cccc(C2CC(=O)Nc3nc(N)[nH]c(=O)c32)c1 (centres unmarked) [compound 2j, 2-Amino-5-(3-ethoxyphenyl)-5,8-dihydro-3H,6H-pyrido[2,3-d]pyrimidine-4,7-dione] | suppressed depending on the concentration | – | – | – | –
Nc1nc2c(c(=O)[nH]1)C(c1cccc(OC(F)(F)F)c1)CC(=O)N2 (centres unmarked) [compound 2o, 2-Amino-5-(3-trifluoromethoxyphenyl)-5,8-dihydro-3H,6H-pyrido[2,3-d]pyrimidine-4,7-dione] | suppressed CREB phosphorylation | suppressed in a dose-dependent manner | significantly suppressed | significantly suppressed | effect of suppressing CREB phosphorylation compared with PA-8 (mouse PAC1 receptor; 10 pM to 10 nM): slightly stronger effect of suppressing CREB phosphorylation than PA-8
O=C(NCCc1c[nH]cn1)C1CC(=O)N(c2n[nH]c3c(Cl)cccc23)C1 (centres unmarked) [compound 3d, N-[2-(1H-imidazol-4-yl)ethyl]-1-(7-chloro-1H-indazol-3-yl)-5-oxo-3-pyrrolidinecarboxamide] | suppressed depending on the concentration | suppressed in a dose-dependent manner | significantly suppressed | significantly suppressed | –
O=C1CC[C@@]2(O)[C@H]3Cc4ccc(O)c5c4[C@@]2(CCN3CC2CC2)[C@H]1O5 [naltrexone] | – | – | – | – | itch behavior induced by PACAP (100 pmol) intradermal administration ([1]; subcutaneous administration 1 mg/kg 15 minutes before PACAP, FIG. 7B): significantly suppressed
PACAP 6-38 | – | – | – | – | 5-HT-induced itch behavior (bite, lick or scratch the injected site, action time) [5]: did not provide significant effects
dupilumab: human type anti-human IL-4/IL-13 receptor monoclonal antibody | – | – | – | – | share of patients for whom the drug is effective [6]: approximately 40%
vasoactive intestinal peptide (HSDAVFTDNYTRLRKQMAVKKYLNSILN; ends and bridges not checked; UniProt P01282 125-152, looked up) [VIP] | – | – | – | – | itch behavior (biting, licking or scratching the administered site) caused by the peptide (mice): such effect was not observed
